# pEC50: −log10 of the molar value.
# Target: T1, hT1R1/hT1R3 umami receptor (Homo sapiens, UniProt Q7RTX0+Q7RTX1)
# T1 construct: expressed in transfected cells; host or cells: HEK293 derivative stably expressing Gα15, clone I-17, expression induced with mifepristone
# T1 sequence (Q7RTX1 21-841): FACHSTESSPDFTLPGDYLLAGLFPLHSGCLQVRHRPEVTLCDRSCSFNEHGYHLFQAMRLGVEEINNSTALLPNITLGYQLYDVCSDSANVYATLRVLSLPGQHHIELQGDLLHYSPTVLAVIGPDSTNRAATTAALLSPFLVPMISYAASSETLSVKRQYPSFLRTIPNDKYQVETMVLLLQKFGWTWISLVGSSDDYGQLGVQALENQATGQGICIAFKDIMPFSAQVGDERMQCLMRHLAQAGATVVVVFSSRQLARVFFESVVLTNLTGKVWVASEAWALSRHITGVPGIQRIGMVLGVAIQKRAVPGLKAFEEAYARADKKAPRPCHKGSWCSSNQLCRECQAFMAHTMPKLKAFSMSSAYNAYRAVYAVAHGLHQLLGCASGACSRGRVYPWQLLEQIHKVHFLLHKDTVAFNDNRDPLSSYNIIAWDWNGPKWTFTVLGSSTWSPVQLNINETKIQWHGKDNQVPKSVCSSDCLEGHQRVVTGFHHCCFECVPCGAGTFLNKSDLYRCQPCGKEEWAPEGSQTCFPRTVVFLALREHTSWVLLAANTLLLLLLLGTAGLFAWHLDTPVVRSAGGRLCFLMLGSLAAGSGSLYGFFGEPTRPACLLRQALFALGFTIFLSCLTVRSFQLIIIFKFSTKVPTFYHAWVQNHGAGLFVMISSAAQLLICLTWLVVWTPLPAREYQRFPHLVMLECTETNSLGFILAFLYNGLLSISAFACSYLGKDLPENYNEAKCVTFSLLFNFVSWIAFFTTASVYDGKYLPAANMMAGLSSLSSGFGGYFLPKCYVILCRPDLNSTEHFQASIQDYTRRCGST
# T1 sequence (Q7RTX0 21-852): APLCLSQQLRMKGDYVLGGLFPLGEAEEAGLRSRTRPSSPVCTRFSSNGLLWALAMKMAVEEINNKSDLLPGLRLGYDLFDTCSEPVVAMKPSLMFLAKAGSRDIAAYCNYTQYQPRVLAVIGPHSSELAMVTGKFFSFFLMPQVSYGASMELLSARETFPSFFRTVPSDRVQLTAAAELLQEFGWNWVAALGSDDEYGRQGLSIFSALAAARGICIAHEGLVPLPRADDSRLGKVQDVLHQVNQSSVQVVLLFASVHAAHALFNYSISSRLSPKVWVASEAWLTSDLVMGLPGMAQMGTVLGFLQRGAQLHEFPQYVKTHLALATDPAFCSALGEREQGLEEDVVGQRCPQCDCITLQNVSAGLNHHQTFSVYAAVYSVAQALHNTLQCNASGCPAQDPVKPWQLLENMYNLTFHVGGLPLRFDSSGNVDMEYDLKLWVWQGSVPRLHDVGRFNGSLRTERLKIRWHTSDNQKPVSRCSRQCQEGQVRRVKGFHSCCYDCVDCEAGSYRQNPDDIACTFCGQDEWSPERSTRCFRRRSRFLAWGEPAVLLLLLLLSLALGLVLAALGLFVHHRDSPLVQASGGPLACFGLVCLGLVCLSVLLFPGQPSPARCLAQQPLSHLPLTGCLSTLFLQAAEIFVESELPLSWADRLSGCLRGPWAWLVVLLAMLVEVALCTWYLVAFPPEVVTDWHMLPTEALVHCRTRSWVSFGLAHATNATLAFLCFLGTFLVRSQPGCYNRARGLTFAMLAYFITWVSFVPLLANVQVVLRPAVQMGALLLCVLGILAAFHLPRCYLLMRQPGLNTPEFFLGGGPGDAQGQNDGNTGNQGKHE
# Experiment: In vitro hT1R1/hT1R3 umami taste receptor activation assay (FLIPR, dose response)
# Format: cell-based
# Settings: Table A, Umami Amides; read-out: Umami EC50
row,SMILES,pEC50
1,"CCOc1ccc(NC(=O)c2c(Cl)ccc(Cl)c2OC)cc1 [Example A1, 3,6-Dichloro-N-(4-ethoxy-phenyl)-2-methoxy-benzamide]",6.66
2,"COC(=O)c1ccc(NC(=O)c2c(Cl)ccc(Cl)c2OC)cc1 [Example A2, 4-(3,6-Dichloro-2-methoxy-benzoylamino)-benzoic acid methyl ester]",6.03
3,"CCOc1ccc(NC(=O)c2cc(Cl)ccc2Cl)cc1 [Example A3, 2,5-dichloro-N-(4-ethoxyphenyl)benzamide]",5.97
4,"COC[C@@H](CC(C)C)NC(=O)c1cc2cc(OC)ccc2o1 [Example A7, (R)-5-methoxy-N-(1-methoxy-4-methylpentan-2-yl)benzofuran-2-carboxamide]",6.34
5,"CCC(CC(C)C)NC(=O)c1cc2cc(C)ccc2o1 (stereo not shown) [Example A8, 5-methyl-N-(5-methylhexan-3-yl)benzofuran-2-carboxamide]",6.30
6,"COC(=O)[C@@H](CC(C)C)NC(=O)c1ccc2occc2c1 [Example A9, (R)-methyl 2-(benzofuran-5-carboxamido)-4-methylpentanoate]",6.15
7,"CCCC(CCC)NC(=O)c1cc2cc(OC)ccc2o1 [Example A10, N-(heptan-4-yl)-5-methoxybenzofuran-2-carboxamide]",6.04
8,"CCC(COC)NC(=O)c1cc2cc(Cl)ccc2o1 (stereo not shown) [Example A11, 5-chloro-N-(1-methoxybutan-2-yl)benzofuran-2-carboxamide]",5.98
9,"CCCC(NC(=O)c1cc2cc(OC)ccc2o1)C(C)C (stereo not shown) [Example A12, 5-methoxy-N-(2-methylhexan-3-yl)benzofuran-2-carboxamide]",5.95
10,"CCC(CC)NC(=O)c1cc2cc(OC)ccc2o1 [Example A13, 5-methoxy-N-(pentan-3-yl)benzofuran-2-carboxamide]",5.94
11,"COC(=O)C(CCSC)NC(=O)c1cc2cc(OC)ccc2o1 (stereo not shown) [Example A14, methyl 2-(5-methoxybenzofuran-2-carboxamido)-4-(methylthio)butanoate]",5.94
12,"CCOC(=O)[C@@H]1CCCC[C@H]1NC(=O)c1cc2cc(OC)ccc2o1 [Example A15, (1R,2R)-ethyl 2-(5-methoxybenzofuran-2-carboxamido)cyclohexanecarboxylate]",5.94
13,"CCC(NC(=O)c1cc2cc(OC)ccc2o1)C(C)C (stereo not shown) [Example A16, 5-methoxy-N-(2-methylpentan-3-yl)benzofuran-2-carboxamide]",5.93
14,"COc1ccc2oc(C(=O)NC(C(C)C)C(C)C)cc2c1 [Example A17, N-(2,4-dimethylpentan-3-yl)-5-methoxybenzofuran-2-carboxamide]",5.92
15,"CCCC(CC(C)C)NC(=O)c1cc2cc(OC)ccc2o1 (stereo not shown) [Example A18, 5-methoxy-N-(2-methylheptan-4-yl)benzofuran-2-carboxamide]",5.90

# Same assay, conditions: read-out: EC50 for activation of a hT1R1/hT1R3 umami receptor expressed in an HEK293 cell line
row,SMILES,pEC50
1,"O=C(NC1CCc2ccccc21)c1ccc2c(c1)OCO2 (stereo not shown) [Example 118, Benzo[1,3]dioxole-5-carboxylic acid indan-1-ylamide]",5.92
2,"CCC(CC)NC(=O)c1ccc(OC)c(C)c1 [Example 119, 4-methoxy-3-methyl-N-(pentan-3-yl)benzamide]",6.40
3,"Cc1ccc(CCNC(=O)c2occc2C)cc1 [Example 120, 3-methyl-N-(p-tolylethyl)furan-2-carboxamide]",5.22
4,"COc1ccc(CNC(=O)c2ccccc2-n2cccc2)c(OC)c1 [Example 121, N-(2,4-dimethoxybenzyl)-2-(1H-pyrrol-1-yl)benzamide]",5.78
5,"COc1ccc(CNC(=O)C(=O)NCCCc2ccccn2)c(OC)c1 [Example 127, N-(2,4-Dimethoxy-benzyl)-N′-(3-pyridin-2-yl-propyl)-oxalamide]",5.74
6,"COc1ccc(CNC(=O)C(=O)NCCc2ccccn2)cc1 [Example 128, N-(4-Methoxybenzyl)-N′-(2-pyridin-2-yl-ethyl)-oxalamide]",6.12
7,"COc1ccc(CNC(=O)C(=O)NCCc2ncccc2C)c(OC)c1 [Example 129, N-(2,4-Dimethoxybenzyl)-N′-(2-(3-methylpyridin-2-yl)ethyl)oxalamide]",5.79
8,"O=C(NCCc1ccccn1)C(=O)NCc1ccccc1Cl [Example 136, N-(2-chlorobenzyl)-N′-(2-(pyridin-2-yl)ethyl)oxalamide]",8.00
9,"O=C(NCCc1ccccn1)C(=O)NCc1cccc2c1OCCO2 [Example 137, N-((2,3-dihydrobenzo[b][1,4]dioxin-5-yl)methyl)-N′-(2-(pyridin-2-yl)ethyl) oxalamide]",6.52
10,"O=C(NCCc1ccccn1)C(=O)NCc1ccc2c(c1)OCO2 [Example 138, N-(benzo[d][1,3]dioxol-5-ylmethyl)-N′-(2-(Pyridin-2-yl)ethyl)oxalamide]",6.30
11,"CCc1ccc(CNC(=O)C(=O)NCCc2ccccn2)cc1 [Example 139, N-(4-Ethylbenzyl)-N′-(2-(pyridin-2-yl)ethyl)oxalamide]",6.10
12,"O=C(NCCc1ccccn1)C(=O)NCc1ccc2occc2c1 [Example 140, N-(Benzofuran-5-ylmethyl)-N′-(2-(pyridin-2-yl)ethyl)oxalamide]",5.75
13,"COC(=O)c1ccc(CNC(=O)C(=O)NCCc2ccccn2)cc1 [Example 141, N-((4-Methoxycarbonylphenyl)methyl)-N′-(2-(pyridin-2-yl)ethyl)oxalamide]",5.44
14,CC(=O)Oc1ccccc1CNC(=O)C(=O)NCCc1ccccn1 [Example 142],5.07
15,"COc1ccc(CNC(=O)C(=O)NC(C)Cc2ccccn2)c(OC)c1 (stereo not shown) [Example 143, N-(2,4-Dimethoxybenzyl)-N′-(1-(Pyridin-2-yl)propan-2-yl)oxalamide]",6.40
16,"COc1ccc(CNC(=O)C(=O)NCC(C)c2ccccn2)c(OC)c1 (stereo not shown) [Example 144, N-(294-Dilmethoxybenzyl)-N′-(2-(pyridin-2-yl)propyl)oxalamide]",5.97
17,Cc1ccccc1CNC(=O)C(=O)NCCc1ccccn1 [Example 145],6.23
18,"COc1cccc(CNC(=O)C(=O)NCCc2ccccn2)c1OC [Example 146, N-(2,3-Dimethoxybenzyl)-N′-(2-(pyridin-2-yl)ethyl)oxalamide]",6.16
19,"CSc1ccccc1CNC(=O)C(=O)NCCc1ccccn1 [Example 147, N-(2-(Methylthio)benzyl)-N′-(2-(pyridin-2-yl)ethyl)oxalamide]",6.02
20,"O=C(NCCc1ccccn1)C(=O)NCc1ccccc1O [Example 148, N-(2-Hydroxybenzyl)-N′-(2-(pyridin-2-yl)ethyl)oxalamide]",5.51
21,"O=C(NCCc1ccccn1)C(=O)NCc1cccc2c1OCO2 [Example 149, N-(Benzo[d][1,3]dioxol-4-ylmethyl)-N′-(2-(pyridin-2-yl)ethyl)oxalamide]",6.77
22,"O=C(NCCc1ccccn1)C(=O)NCc1cc2ccccc2s1 [Example 150, N-(Benzo[b]thiophen-2-ylmethyl)-N′-(2-(pyridin-2-yl)ethyl)oxalamide]",6.13
23,"O=C(NCCc1ccccn1)C(=O)NCc1nc2ccccc2s1 [Example 151, N-(Benzo[d]thiazol-2-ylmethyl)-N′-(2-(pyridin-2-yl)ethyl)oxalamide]",5.36
24,"Cc1ccc(CNC(=O)C(=O)NCCc2ccccn2)o1 [Example 152, N-((5-Methylfuran-2-yl)methyl)-N2-(2-(pyridin-2-yl)ethyl)oxalamide]",5.31
25,"Cc1occc1CNC(=O)C(=O)NCCc1ccccn1 [Example 153, N-((2-Methylfuran-3-yl)methyl)-N′-(2-(pyridin-2-yl)ethyl)oxalamide]",5.74
